Measured values: US20160038449A1, “MULTI-COMPONENT PHARMACEUTICALS FOR TREATING DIABETES” (Complexa, Inc., priority 2010, published 2016)

Assays:
ob/ob mice [1] = experiment: Insulin sensitivity: blood glucose after administration of insulin in ob/ob mice; format: in vivo; conditions: 120 minute time course (FIG. 6)
ob/ob mice [2] = experiment: Blood glucose level of ob/ob mice after administration; format: in vivo; conditions: ob/ob mice (FIG. 2)
Source text: Similar results are observed in experiments involving ob/ob mice.

WT mice [3] = experiment: Blood glucose level of fed WT mice after administration; format: in vivo; conditions: for blood glucose level: fed WT mice, level maintained over the study (FIG. 1), vehicle control about 170 mg/dL
Experimental: Oleic acid, nitro-oleic acid, rosiglitazone, or a vehicle control were administered to fed WT mice, and the blood glucose level of these mice was monitored.

[4] = set-up: species or system mice; conditions: mouse, in vivo
Experimental: In addition to reducing blood glucose levels, substantially no increase in body weight was observed when nitro-oleic acid is administered to mice as compared to mice administered a vehicle control, oleic acid, or rosiglitazone.

WT mice [5] = experiment: Insulin sensitivity: blood glucose after administration of insulin in WT mice; format: in vivo; conditions: 120 minute time course (FIG. 5)

## 9- or 10-nitro octadecenoic acid [nitro-oleic acid]
ob/ob mice [1]
  blood glucose levels after administration of insulin: substantial decrease in blood glucose levels over the course of the 120 minute time period
ob/ob mice [2]
  change of blood glucose level over the course of the study: effectively reduced the blood glucose level over the course of the study
WT mice [3]
  blood glucose level: about 125 mg/dL
[4]
  change of body weight over the course of the study: initially decreased (days 0-10), and then remained substantially constant over the second half of the study
WT mice [5]
  blood glucose levels after administration of insulin: initial drop in blood glucose levels after administration of insulin followed by an increase in blood glucose back to normal levels about 120 minutes after the administration of insulin

## CCCCCCCC/C=C\CCCCCCCC(=O)O [oleic acid]
ob/ob mice [1]
  blood glucose levels after administration of insulin: increased over the 120 minute time course
ob/ob mice [2]
  change of blood glucose level over the course of the study: increased blood glucose level over the course of the study
WT mice [3]; fed WT mice (FIG. 1)
  change of blood glucose level over the course of the study: increased blood glucose levels over the course of the study
[4]
  change of body weight over the course of the study: steady increase in body weight over the course of the study

## CN(CCOc1ccc(CC2SC(=O)NC2=O)cc1)c1ccccn1 (centres unmarked) [rosiglitazone]
WT mice [3]
  blood glucose level: about 150 mg/dL
[4]
  change of body weight over the course of the study: steady increase in body weight over the course of the study
